Test: Human HepG2 cell viability assay in 384 well format
Type: toxicity, cell-based
Design: dose 125 nL, time 70.5 hour; concentration not given beside the values
Conditions: HepG2 cells, read-out: Inhibition

SMILES	cytotoxicity at 70.5 h
CN1CCN(C(=O)N2C[C@H]3CC[C@@H]2CN(Cc2ccccc2)C3)CC1	-18.1%
COc1ccc(CN(C)C2CSCCSC2)c2cccnc12	-6.62%
Cc1cc(C)cc(-c2cc(C3CCOC3)c(C#N)c(N)n2)c1 (configuration not stated)	12.8%
Cn1ccnc1CN1C[C@@H](CN2CCCCCC2)[C@@H](CO)C1	1.19%
CCc1[nH]c2c(CNC(=O)C3CCC(=O)NC3)cc(C)cc2c1C (configuration not stated)	-9.39%
CN(CCCc1ccccc1)C(=O)c1ccccc1NCC(=O)O	-13.3%
Cc1cc(C(=O)N2CCc3c(ncnc3N3CCOCC3)C2)[nH]n1	-1.64%
Cc1nc(C)c(C)c(N2CCC(O)(c3ccc(F)cc3)CC2)n1	-6.02%
CCN(CC)C(=O)c1ccc(Cl)c(NC(=O)c2cc(C(C)C)on2)c1	-12.4%
COCCC1(C(=O)O)CCCN(Cc2cc3c(cc2C)OCO3)C1 (configuration not stated)	-2.46%
CSc1ccc2c(C)cc(N[C@@H](C)CO)nc2c1	23.3%
CC(Cn1cncn1)NCCN1CCc2ccccc2C1 (configuration not stated)	-6.48%
CC(C)NS(=O)(=O)c1cc(C(=O)O)cc(-c2ccc3c(c2)OCO3)c1	-9.21%
Cc1nc(O)cc(CCNC(=O)c2ccc(CN3CCCCC3)cc2)n1	0.488%
Nc1cnc(-c2cccc3ccnn23)cn1	14.2%
Cc1ccc(OC2(C(=O)NC(C)c3csc(C)n3)CCNCC2)cc1 (configuration not stated)	22.5%
C=C(C)COc1ccc(C(=O)NCC2CC(CC)=NO2)cc1 (configuration not stated)	-15.2%
CN(Cc1ccsc1)Cc1nc(-c2cnccn2)no1	-6.12%
CN(C)C(C(=O)NCCS(=O)(=O)N(C)C)c1cccc(F)c1 (configuration not stated)	8.21%
O=C(Nc1nncs1)N1CCC(CCO)CC1	-7.1%
Cc1ccc(-n2cc(CN3CCOCC(CN(C)C)C3)cn2)cc1C (configuration not stated)	37.2%
Cc1nc(CCN)cc(N2CCCN(C(=O)c3ccco3)CC2)n1	-4.43%
CC(C)Cc1nc(CS(C)(=O)=O)n(-c2ccccn2)n1	-7.54%

SMILES	cytotoxicity at 70.5 h
Cc1ccnn1CC(=O)N(C)Cc1cnn(-c2ccccc2)c1	-1.98%
Nc1ncc(CN2C[C@H](C3CC3)[C@@H](N)C2)cn1	-5.66%
CN(C)c1ncc(CN2CCCC(Nc3ccc4c(c3)OCCO4)C2)s1 (configuration not stated)	-12.3%
Cc1cc(C)c2[nH]c(=O)c(CN3CCCC(O)(CO)C3)cc2c1 (configuration not stated)	-13.5%
COc1ccc(-n2cccn2)c(CN2CCC3(CCNCC3)C2)c1	-9.48%
Cc1cccc(OC2(C(=O)O)CCN(C(=O)CCc3ccco3)CC2)c1	30.3%
Cc1ccccc1N1CCN(C(=O)c2ncc(F)cc2F)C(C)C1 (configuration not stated)	-3.38%
COc1cccc(-c2ncc(CN3CC[C@H](CO)[C@@H](O)C3)s2)c1	-20.8%
O=C(c1cc(F)cc(Cl)c1)N1C[C@@H]2CC[C@H](C1)N(Cc1ccccc1)C2	-3.75%
Cc1ccccc1N1CCCN(C(=O)CCc2cccnc2)CC1	0.239%
CCNC(=O)[C@@H]1C[C@H](N)CN1C(=O)c1c[nH]c2ccccc12	-0.954%
O=C(O)C1(Oc2ccc3ccccc3c2)CCN(c2ccncc2)CC1	21.4%
C=C(C)COc1cccc(C(=O)N(C)C(C)c2ccncn2)c1 (configuration not stated)	-7.56%
Cc1cc(C)cc(CN2CCN(C(=O)CCc3n[nH]c(C)n3)CC2=O)c1	22.5%
CCCOc1ccc(OCCN2CCOCS2(=O)=O)cc1	-10.3%
CN(Cc1cc2cc(F)ccc2[nH]1)C(=O)C1CC(=O)N(C2CCCC2)C1 (configuration not stated)	-4.53%
O=C(NCC1CCCO1)c1coc(Cn2cnc3ccccc32)n1 (configuration not stated)	-4.46%
CC(=O)NCCc1nc(C(C)C)nn1-c1ccncc1C	-14.7%
COCC(=O)N1CCc2cccc(S(=O)(=O)N3CCOCC3)c2C1	-6.37%
CN(CCc1ccccn1)C(=O)CCC1CCCN(c2ccncc2)C1 (configuration not stated)	0%
CCSCCn1cc(-c2nccs2)nn1	-9.08%
COc1cccc(-c2cccc(-c3ccn(CC4COCCO4)n3)c2)n1 (configuration not stated)	13.1%
CSCCCN1C[C@H](NC(=O)c2cc(C3CC3)on2)[C@@H](C2CC2)C1	-7.58%

SMILES	cytotoxicity at 70.5 h
O=C(NCCn1ccnc1-c1cc2n(n1)CCCNC2)c1ccncc1	-2.02%
COc1ccc(N2CCC(N3C[C@H](NC(C)=O)[C@@H](C(C)C)C3)CC2)cc1	-7.18%
Cc1noc(-c2ccc(N(C)Cc3ccncc3C)nc2)n1	-5.41%
COC(=O)N1CCCCC1C(=O)N1CCN(c2ncccc2C)CC1 (configuration not stated)	-1.8%
CN(Cc1cc2n(n1)CCCNC2)Cc1ccno1	-5.8%
Cc1cc(C)n2nc(C(=O)N3CCCC4(CCOC4)C3)cc2n1 (configuration not stated)	-10.3%
Cc1nc(C(=O)N2CCC(c3nnc(Cn4ccnc4)n3C)CC2)cs1	-8.64%
CN(C)Cc1nnc(C2CCCN(Cc3ccc(Cl)s3)C2)n1C (configuration not stated)	5.14%
CN(C)C(=O)c1cn2cc(-c3ccccc3Cl)n(CC3CC3)c(=O)c2n1	-3.22%
CCC1CN(C(=O)c2cccc(O)c2)CCC(=O)N1Cc1ccccc1 (configuration not stated)	0.303%
Cn1cc(CN2CCCC(CCc3c(F)cccc3F)C2)cn1 (configuration not stated)	1.58%
CCn1ccnc1CNC1CC(=O)N(CCc2cccc(Cl)c2)C1 (configuration not stated)	-2.81%
COc1ccc(-c2n[nH]cc2CN(C)CCC2CCOCC2)cc1F	-1.66%
O=C(CC1CCc2ccccc21)NC1(C(=O)O)CCCC1 (configuration not stated)	22.9%
COc1cccc(CCn2ccnc2-c2cn(C3CCNCC3)nn2)c1	28.6%
CCCc1nccn1-c1ccc(C(O)CN2CCOCC2)cc1 (configuration not stated)	27.6%
CCn1c(CC2CCN(C(=O)c3ccnn3C)CC2)n[nH]c1=O	-6.64%
O=C1N(Cc2ccc(F)cc2)CCCC12CCN(C1CCSCC1)C2 (configuration not stated)	-6%
O=C(C1CCCC1)N1CC[C@]2(O)CCN(Cc3ncccn3)C[C@@H]2C1	-3.12%
O=C(CCc1cc2n(n1)CCCN(C(=O)[C@H]1CCCO1)C2)NC1CC1	3.28%
COc1ccc(OC)c(C2CCN(C3CCOCC3)C2)c1 (configuration not stated)	6.32%
CCOc1ccccc1C(=O)N1CCCC(O)(CN(C)C)C1 (configuration not stated)	11.6%
Cc1nc(CN2CCN(C(=O)COc3c(C)ccc(C)c3C)CC2)no1	-4.73%

SMILES	cytotoxicity at 70.5 h
Cc1ccc(NC(=O)[C@@H]2C[C@H](C(=O)O)CN(Cc3sccc3C)C2)cn1	18.3%
OC1CCN(c2ccnc(NCCc3ccccc3Cl)n2)C1 (configuration not stated)	-3.46%
N#Cc1cccc(N2CCC3(CC2)Nc2ccccc2NC3=O)n1	-5.8%
CCn1c(N)nc2cc(C(=O)NCCc3ccncc3)cnc21	-13.4%
O=C1CCCN1Cc1nc(-c2ccsc2)no1	19.8%
Cc1nc(N2CCC(O)(c3ccc(F)cc3)CC2)c2c(C)nn(C)c2n1	-3.16%
CS(=O)(=O)N1CCC(NCC2(N3CCOCC3)CCCCC2)CC1	-12.3%
O=C(NCC1CCCO1)Nc1nnc(C(F)(F)F)s1 (configuration not stated)	-15.8%
c1cncc(-n2cnnc2CC2CCNCC2)c1	-0.719%
COc1cc(F)c(CN2CCN(CC(C)C)C(=O)C2C)cc1OC (configuration not stated)	-1.44%
CC(=O)N1CCc2c(nc(N(C)C)nc2NCc2cccs2)C1	-4.81%
COc1cc(CN2CCCC23CCN(c2ccccn2)CC3)ccc1F	-0.0865%
CNc1ncc(CN(C)Cc2cc3n(n2)CCNC3)cn1	-9%
Cc1ccc(CN2CCN(Cc3ccc4nonc4c3)CC2=O)cc1	1.65%
CCOc1cc(CN2CCCC2)ccc1Oc1cccc(C#N)n1	-1.2%
COCCc1noc(CN(C)c2nc(C)cc(C)n2)n1	-9.27%
O=C(O)CCc1cc2n(n1)CCCN(C(=O)c1cc3ccccc3s1)C2	30%
CCN1CCN(CC(=O)N2CCOC(Cc3ccc(OC)cc3)C2)CC1 (configuration not stated)	-16%
CC(C)N1CCC(C(=O)N(C)C(C)c2ccon2)CC1 (configuration not stated)	-0.598%
Cc1c(C(C)NC2CCN(C(C)C)CC2)cnn1-c1ccc(F)cc1F (configuration not stated)	-9.98%
CC(C)(C)N1CC(C(=O)N2CC(Oc3ccc(F)cc3)C2)CC1=O (configuration not stated)	18.6%
Cc1oc(-c2ccsc2)nc1CN1CC[C@@H]2CCCC[C@H]2C1	13.8%
CCCN(CCOC)C(=O)c1cc(Cn2c(C)nc3ccccc32)[nH]n1	-2.8%

SMILES	cytotoxicity at 70.5 h
CCn1c(CC2CCN(S(=O)(=O)c3cccc(C)c3)CC2)nn(C)c1=O	-4.11%
CC(C)(C)c1cc2ncn(CCCN3CCCCC3CO)c(=O)c2s1 (configuration not stated)	-14.7%
CC(C)Cc1ncc2c(n1)CN(C(=O)c1ccc(CN3CCCC3)o1)C2	-7.27%
CC(C)N1CCC(CC(=O)NCCc2cc(O)ncn2)CC1	-11.7%
NC(=O)C1CCCN(Cc2ccc(C(=O)Nc3cnns3)cc2)C1 (configuration not stated)	5.24%
CCC[C@@H]1CN(Cc2ccccc2-c2ccco2)C[C@H]1NC(C)=O	-5.42%
CCc1nc(NC(=O)NCCc2cccc(C)n2)nn1C	-12.7%
C[C@@H]1CN(Cc2nnc(-c3cccnc3)o2)CC[C@]1(C)O	6.07%
COc1cccc(OC)c1OCCn1c(C)c(C)oc1=O	0.271%
CC[C@H]1CN(C(=O)c2cnc(CN3CCCC3)s2)CC[C@@]1(C)O	22.4%
Cc1ncsc1CCC(=O)NC1CCN(c2ccc(Cl)nn2)CC1	-13.9%
CCOc1ccccc1-c1cc2c(cc1C(N)=O)OCO2	9.52%
CCc1cc(CN2CCC(CCC(=O)Nc3ccccc3Cl)CC2)on1	-0.0329%
CCCc1nc(C(=O)N(C)Cc2cnn(-c3cccc(OC)c3)c2)cs1	-8.69%
O=C(O)[C@@H]1CN(Cc2ccc3nsnc3c2)C[C@H]1c1ccncc1	6.98%
CCCc1c(C2CCOC(C)(C)C2)nc(N)c(C#N)c1-c1cnn(C)c1 (configuration not stated)	-2.75%
CCN(Cc1noc(C)n1)C(=O)CC1C(=O)NCCN1CC(C)(C)C (configuration not stated)	9.61%
O=C1Nc2ccccc2C12CCCN(Cc1ccncc1)C2 (configuration not stated)	-10.6%
Cc1ccc(N2CCN(C(=O)CCc3n[nH]c(C)c3C)CC2=O)cc1	-0.118%
OCCN1CCc2[nH]nc(C(c3ccccc3)c3ccccc3)c2C1	-7.95%

From ChEMBL document CHEMBL3507680, “University of Dundee, Gates Library screen for HepG2 cell viability”
